Test results published in BindingDB's records for doi:10.1021/cb400407c (Duke University Medical Center, 2013).
Where “and” joins values, the source holds several entries; their conditions need not be identical. Equal values may be shown once.

Legend:
Assay in all cases: Kinome Profiling
[1] = molecular target: Serine/threonine-protein kinase pim-3 (Homo sapiens, UniProt Q86V86)
Procedure: (§1) HS38 was evaluated using a P-33 ATP filter-binding assay by the International Centre for Kinase Profiling (University of Dundee) against 124 purified protein kinases using previously described methods.

[2] = molecular target: Death-associated protein kinase 1 (Homo sapiens, UniProt P53355)
Procedure: as §1

[3] = molecular target: Rho-associated protein kinase 2 (Homo sapiens, UniProt O75116)
Procedure: as §1

[4] = molecular target: Serine/threonine-protein kinase pim-2 (Homo sapiens, UniProt Q9P1W9)
Procedure: as §1

[5] = molecular target: Serine/threonine-protein kinase pim-1 (Homo sapiens, UniProt P11309)
Procedure: as §1

Death-associated protein kinase 1, sequence (P53355 whole entry): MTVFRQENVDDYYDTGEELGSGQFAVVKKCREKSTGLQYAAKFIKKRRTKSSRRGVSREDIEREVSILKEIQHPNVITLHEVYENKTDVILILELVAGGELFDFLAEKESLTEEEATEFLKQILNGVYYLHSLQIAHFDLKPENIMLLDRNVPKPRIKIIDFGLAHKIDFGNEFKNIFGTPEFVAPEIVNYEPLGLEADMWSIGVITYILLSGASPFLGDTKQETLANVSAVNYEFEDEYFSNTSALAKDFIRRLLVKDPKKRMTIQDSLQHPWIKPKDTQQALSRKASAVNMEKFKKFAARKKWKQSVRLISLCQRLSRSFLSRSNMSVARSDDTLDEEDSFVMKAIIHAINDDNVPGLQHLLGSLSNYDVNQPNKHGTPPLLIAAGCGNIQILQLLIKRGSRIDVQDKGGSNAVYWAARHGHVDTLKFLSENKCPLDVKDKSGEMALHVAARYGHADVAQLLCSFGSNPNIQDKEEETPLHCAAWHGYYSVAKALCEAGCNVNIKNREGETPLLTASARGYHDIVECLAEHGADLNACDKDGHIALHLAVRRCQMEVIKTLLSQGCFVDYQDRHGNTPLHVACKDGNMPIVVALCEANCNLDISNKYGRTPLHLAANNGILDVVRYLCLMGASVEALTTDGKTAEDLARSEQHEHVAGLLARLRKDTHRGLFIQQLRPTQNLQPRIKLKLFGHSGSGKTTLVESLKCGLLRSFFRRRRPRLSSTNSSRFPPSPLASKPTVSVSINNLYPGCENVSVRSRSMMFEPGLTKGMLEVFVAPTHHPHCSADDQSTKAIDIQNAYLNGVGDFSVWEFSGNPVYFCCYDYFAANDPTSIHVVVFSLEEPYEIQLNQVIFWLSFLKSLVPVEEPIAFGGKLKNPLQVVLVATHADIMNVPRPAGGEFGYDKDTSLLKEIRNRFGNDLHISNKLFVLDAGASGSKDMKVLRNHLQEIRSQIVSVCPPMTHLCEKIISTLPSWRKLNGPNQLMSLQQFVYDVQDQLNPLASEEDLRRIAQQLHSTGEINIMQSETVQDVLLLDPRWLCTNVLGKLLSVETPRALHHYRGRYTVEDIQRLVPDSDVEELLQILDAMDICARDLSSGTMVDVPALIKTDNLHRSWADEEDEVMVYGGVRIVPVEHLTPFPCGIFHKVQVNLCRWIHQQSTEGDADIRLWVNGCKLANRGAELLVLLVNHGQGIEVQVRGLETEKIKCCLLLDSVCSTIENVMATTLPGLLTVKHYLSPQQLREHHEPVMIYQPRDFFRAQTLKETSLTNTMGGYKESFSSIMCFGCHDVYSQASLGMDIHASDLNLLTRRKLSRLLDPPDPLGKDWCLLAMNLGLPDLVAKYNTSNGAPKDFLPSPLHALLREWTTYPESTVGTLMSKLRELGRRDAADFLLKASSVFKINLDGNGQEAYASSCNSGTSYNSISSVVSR
Serine/threonine-protein kinase pim-2, sequence (Q9P1W9 whole entry): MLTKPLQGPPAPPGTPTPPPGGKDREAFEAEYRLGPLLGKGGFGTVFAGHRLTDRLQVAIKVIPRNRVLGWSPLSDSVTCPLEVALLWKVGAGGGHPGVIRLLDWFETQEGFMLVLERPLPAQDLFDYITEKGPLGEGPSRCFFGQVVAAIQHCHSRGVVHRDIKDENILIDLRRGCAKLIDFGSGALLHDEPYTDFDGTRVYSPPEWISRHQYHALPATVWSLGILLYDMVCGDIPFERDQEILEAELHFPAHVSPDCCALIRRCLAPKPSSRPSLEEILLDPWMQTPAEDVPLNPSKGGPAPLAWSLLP
Serine/threonine-protein kinase pim-1, sequence (P11309 whole entry): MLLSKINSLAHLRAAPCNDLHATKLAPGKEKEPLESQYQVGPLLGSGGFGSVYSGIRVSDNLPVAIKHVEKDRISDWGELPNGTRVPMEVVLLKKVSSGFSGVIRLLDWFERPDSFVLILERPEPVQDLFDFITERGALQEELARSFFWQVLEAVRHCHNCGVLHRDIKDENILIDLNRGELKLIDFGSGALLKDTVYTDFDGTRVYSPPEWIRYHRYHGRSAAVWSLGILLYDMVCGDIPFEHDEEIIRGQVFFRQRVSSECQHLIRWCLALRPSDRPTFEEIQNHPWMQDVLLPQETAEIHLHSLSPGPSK
Rho-associated protein kinase 2, sequence (O75116 whole entry): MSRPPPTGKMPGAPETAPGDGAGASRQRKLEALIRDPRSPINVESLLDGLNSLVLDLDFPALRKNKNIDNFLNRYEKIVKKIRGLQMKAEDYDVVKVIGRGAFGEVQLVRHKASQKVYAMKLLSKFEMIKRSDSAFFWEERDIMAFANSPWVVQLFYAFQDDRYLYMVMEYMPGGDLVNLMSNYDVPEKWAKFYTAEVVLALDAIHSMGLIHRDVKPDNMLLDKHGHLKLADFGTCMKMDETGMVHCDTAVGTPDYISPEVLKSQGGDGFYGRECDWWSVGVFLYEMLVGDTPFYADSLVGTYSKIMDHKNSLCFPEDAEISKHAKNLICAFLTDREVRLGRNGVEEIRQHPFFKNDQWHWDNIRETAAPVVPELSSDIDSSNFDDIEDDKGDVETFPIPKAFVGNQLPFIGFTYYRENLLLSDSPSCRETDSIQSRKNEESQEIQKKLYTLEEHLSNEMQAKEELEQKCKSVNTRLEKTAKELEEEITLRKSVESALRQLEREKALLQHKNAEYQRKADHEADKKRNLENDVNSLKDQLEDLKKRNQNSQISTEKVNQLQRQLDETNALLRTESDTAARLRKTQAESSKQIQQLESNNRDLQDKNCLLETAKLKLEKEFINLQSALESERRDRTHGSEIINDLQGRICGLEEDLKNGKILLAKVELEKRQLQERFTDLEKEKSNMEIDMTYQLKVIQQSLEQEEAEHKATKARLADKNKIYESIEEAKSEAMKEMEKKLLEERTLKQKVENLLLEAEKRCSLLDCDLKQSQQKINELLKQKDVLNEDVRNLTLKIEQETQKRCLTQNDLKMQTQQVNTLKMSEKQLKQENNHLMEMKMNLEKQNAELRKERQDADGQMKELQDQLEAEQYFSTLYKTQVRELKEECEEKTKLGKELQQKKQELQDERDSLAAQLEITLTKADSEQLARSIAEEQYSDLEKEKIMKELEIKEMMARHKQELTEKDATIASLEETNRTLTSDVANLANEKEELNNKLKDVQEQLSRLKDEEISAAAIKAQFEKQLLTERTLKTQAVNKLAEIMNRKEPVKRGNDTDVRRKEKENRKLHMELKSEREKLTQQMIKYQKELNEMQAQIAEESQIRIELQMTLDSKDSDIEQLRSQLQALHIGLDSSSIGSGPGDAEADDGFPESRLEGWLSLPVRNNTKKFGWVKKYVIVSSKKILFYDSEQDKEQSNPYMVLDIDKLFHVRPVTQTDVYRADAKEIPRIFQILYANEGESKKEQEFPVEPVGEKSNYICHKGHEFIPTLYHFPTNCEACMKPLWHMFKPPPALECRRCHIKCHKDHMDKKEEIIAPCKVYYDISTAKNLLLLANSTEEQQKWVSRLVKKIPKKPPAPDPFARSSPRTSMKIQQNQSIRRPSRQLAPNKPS

| SMILES | Kd [1] [µM] | Kd [2] | IC50 [3] [µM] | Kd [4] [µM] | Kd [5] [µM] |
| --- | --- | --- | --- | --- | --- |
| CC(Sc1nc2c(cnn2-c2cccc(Cl)c2)c(=O)[nH]1)C(N)=O (centres undefined) [HS38] | 0.81 | 0.3 µM and 0.079 µM and 0.28 µM | > 200 | 6.5 | 1.8 |
| O=c1[nH]c(SCCO)nc2c1cnn2-c1cccc(Cl)c1 [HS43] | 1.6 | 1.5 µM and 0.32 µM | – | 3.2 | 1.8 |
